According to ChEMBL document CHEMBL5108078, “Design and Synthesis of Phenyl Sulfide-Based Cationic Amphiphiles as Membrane-Targeting Antimicrobial Agents against Gram-Positive Pathogens” (J Med Chem, 2022):
Converted amounts (≈) assume the structure as drawn.

What was measured:
[1] = system: Staphylococcus aureus; assay: Antibacterial activity against methicillin resistant Staphylococcus aureus NCTC10442 assessed as inhibition of bacterial growth incubated for 24 hrs by microbroth dilution method; format: functional
[2] = system: Staphylococcus aureus; assay: Antibacterial activity against methicillin resistant Staphylococcus aureus N315 assessed as inhibition of bacterial growth incubated for 24 hrs by microbroth dilution method; format: functional
[3] = Hemolytic activity in rabbit RBC incubated for 1 hr by microplate reader analysis; format: toxicity, cell-based, Oryctolagus cuniculus, Erythrocyte; settings: rabbit red blood cells (erythrocytes)
[4] = system: Staphylococcus aureus; assay: Antibacterial activity against Staphylococcus aureus ATCC 29213 assessed as inhibition of bacterial growth incubated for 24 hrs by microbroth dilution method; format: functional
[5] = system: Staphylococcus aureus; assay: Induction of resistant development in Staphylococcus aureus ATCC 29213 assessed as fold increase in MIC at 0.5 MIC after 12 passages by resistant development assay; format: functional

SMILES	MIC [1] [µg/mL]	MIC [2] [µg/mL]	HC50 at 1 h [3] [µg/mL]	MIC [4] [µg/mL]	fold change (FC) [5]
CC(C)(C)CC(C)(C)c1ccc(OCCCCBr)c(Sc2cc(C(C)(C)CC(C)(C)C)ccc2OCCCCBr)c1	> 50	> 50	> 200	> 50	–
COC(=O)[C@H](CCCNC(=N)N)NC(=O)COc1ccc(Cl)cc1Sc1cc(Cl)ccc1OCC(=O)N[C@@H](CCCNC(=N)N)C(=O)OC	12.5 (≈ 16.8 µM)	12.5 (≈ 16.8 µM)	> 200	25 (≈ 33.6 µM)	–
CN1CCN(CCCCOc2ccc(C(C)(C)CC(C)(C)C)cc2Sc2cc(C(C)(C)CC(C)(C)C)ccc2OCCCCN2CCN(C)CC2)CC1	12.5 (≈ 16.6 µM)	12.5 (≈ 16.6 µM)	> 200	12.5 (≈ 16.6 µM)	–
CCCCCCNCCCCOc1ccc(C(C)(C)CC(C)(C)C)cc1Sc1cc(C(C)(C)CC(C)(C)C)ccc1OCCCCNCCCCCC	> 50	> 50	> 200	> 50	–
Cc1cc(Sc2cc(C)cc(C(C)(C)C)c2OCC(=O)N[C@@H](CCCNC(=N)N)C(N)=O)c(OCC(=O)N[C@@H](CCCNC(=N)N)C(N)=O)c(C(C)(C)C)c1	12.5 (≈ 15.9 µM)	12.5 (≈ 15.9 µM)	> 200	25 (≈ 31.8 µM)	–
CCCN(CCC)CCCCOc1ccc(C(C)(C)CC(C)(C)C)cc1Sc1cc(C(C)(C)CC(C)(C)C)ccc1OCCCCN(CCC)CCC	> 50	> 50	> 200	> 50	–
CCN(CC)CCCCOc1ccc(C(C)(C)CC(C)(C)C)cc1Sc1cc(C(C)(C)CC(C)(C)C)ccc1OCCCCN(CC)CC	3.12 (≈ 4.48 µM)	1.56 (≈ 2.24 µM)	67.9	3.12 (≈ 4.48 µM)	–
CC(C)(C)CC(C)(C)c1ccc(OCCCCN2CCCCC2)c(Sc2cc(C(C)(C)CC(C)(C)C)ccc2OCCCCN2CCCCC2)c1	25 (≈ 34.7 µM)	12.5 (≈ 17.3 µM)	> 200	12.5 (≈ 17.3 µM)	–
CCNCCCCOc1ccc(C(C)(C)CC(C)(C)C)cc1Sc1cc(C(C)(C)CC(C)(C)C)ccc1OCCCCNCC	1.56 (≈ 2.43 µM)	1.56 (≈ 2.43 µM)	30.8	1.56 (≈ 2.43 µM)	–
CCCCN(CCCC)CCCCOc1ccc(C(C)(C)CC(C)(C)C)cc1Sc1cc(C(C)(C)CC(C)(C)C)ccc1OCCCCN(CCCC)CCCC	> 50	> 50	> 200	> 50	–
COC(=O)[C@H](CCCNC(=N)N)NC(=O)COc1ccc(C(C)(C)CC(C)(C)C)cc1Sc1cc(C(C)(C)CC(C)(C)C)ccc1O	1.56 (≈ 2.33 µM)	3.12 (≈ 4.66 µM)	130	12.5 (≈ 18.6 µM)	–
CC(C)(C)CC(C)(C)c1ccc(OCCCCNC(=N)N)c(Sc2cc(C(C)(C)CC(C)(C)C)ccc2OCCCCNC(=N)N)c1	3.12 (≈ 4.67 µM)	3.12 (≈ 4.67 µM)	> 200	3.12 (≈ 4.67 µM)	–
CC(C)(C)CC(C)(C)c1ccc(OCC(=O)N[C@@H](CCCNC(=N)N)C(N)=O)c(Sc2cc(C(C)(C)CC(C)(C)C)ccc2OCC(=O)N[C@@H](CCCNC(=N)N)C(N)=O)c1	3.12 (≈ 3.6 µM)	1.56 (≈ 1.79 µM)	183	3.12 (≈ 3.6 µM)	–
CCn1cc(C(=O)O)c(=O)c2cc(F)c(N3CCNCC3)cc21	–	–	–	–	32
